Data from US8962674B2 (Tokyo Institute of Technology, priority 2006, dated 2015).

| melting point | SMILES |
| --- | --- |
| 186 to 193 °C | Nc1ccccc1/C=C/C(=O)CC(=O)/C=C/c1ccc(O)cc1 [CU482, (1E,6E)-1-(2-aminophenyl)-7-(4-hydroxyphenyl)hepta-1,6-diene-3,5-dione] |
| 227 to 231 °C | O=C(/C=C/c1ccc(O)cc1)CC(=O)/C=C/c1coc2ccccc2c1=O [CU407, (1E,6E)-1-(chromon-3-yl)-7-(4-hydroxyphenyl)hepta-1,6-diene-3,5-dione] |
| 192 to 196 °C | CCN(CC)c1ccc(/C=C/C(=O)CC(=O)/C=C/c2ccc(N(CC)CC)cc2OC(=O)c2ccccc2)c(OC(=O)c2ccccc2)c1 [CU427, (1E,6E)-1,7-bis(2-benzoyloxy-4-diethylaminophenyl)hepta-1,6-diene-3,5-dione] |
| 212 to 217 °C | CN1CCN(c2ccc(/C=C/C(=O)CC(=O)/C=C/c3ccc(N4CCN(C)CC4)cc3)cc2)CC1 [CU386, (1E,6E)-1,7-bis[4-(4-methylpiperazin-1-yl)phenyl]hepta-1,6-diene-3,5-dione] |
| 249 to 256 °C | O=C(/C=C/c1ccc(O)cc1)CC(=O)/C=C/c1ccccc1-c1ccncc1 [CU514, (1E,6E)-1-(4-hydroxyphenyl)-7-[2-(pyridin-4-yl)phenyl]hepta-1,6-diene-3,5-dione] |
| 264 to 268 °C | O=C(/C=C/c1cc2ccccc2[nH]1)CC(=O)/C=C/c1cc2ccccc2[nH]1 [CU393, (1E,6E)-1,7-bis(1H-indol-2-yl)hepta-1,6-diene-3,5-dione] |
| 145 to 150 °C | COC(=O)c1ccccc1/C=C/C(=O)CC(=O)/C=C/c1ccc(O)cc1 [CU478, (1E,6E)-1-(4-hydroxyphenyl)-7-[2-(methoxycarbonyl)phenyl]hepta-1,6-diene-3,5-dione] |
| 188 to 192 °C | O=C(/C=C/c1ccc(O)cc1)CC(=O)/C=C/c1ccccc1N1CCOCC1 [CU498, (1E,6E)-1-(4-hydroxyphenyl)-7-(2-morpholinophenyl)hepta-1,6-diene-3,5-dione] |
| 45 to 51 °C | O=C(/C=C/c1ccc(O)c(Cl)c1)CC(=O)CCc1ccc(O)cc1 [CU546, (E)-1-(3-chloro-4-hydroxyphenyl)-7-(4-hydroxyphenyl)hept-1-ene-3,5-dione] |
| 237 to 242 °C | COc1cc(/C=C/C(=O)CC(=O)/C=C/c2ccc(O)cc2)c(Br)cc1O [CU539, (1E,6E)-1-(2-bromo-4-hydroxy-5-methoxyphenyl)-7-(4-hydroxyphenyl)hepta-1,6-diene-3,5-dione] |
| 155 to 159 °C | O=C(/C=C/c1ccc(O)cc1)CC(=O)/C=C/c1ccccc1Br [CU486, (1E,6E)-1-(2-bromophenyl)-7-(4-hydroxyphenyl)hepta-1,6-diene-3,5-dione] |
| 180 to 184 °C | COc1cc(/C=C/C(=O)CC(=O)/C=C/c2ccc3ccn(Cc4ccccc4)c3c2)ccc1O [CU443, (1E,6E)-1-(1-benzyl-1H-indol-6-yl)-7-(4-hydroxy-3-methoxyphenyl)hepta-1,6-diene-3,5-dione] |
| 182 to 186 °C | CCN(CC)c1ccc(/C=C/C(=O)CC(=O)/C=C/c2ccc(O)cc2)c(OCCO)c1 [CU430, (1E,6E)-1-[4-diethylamino-2-(2-hydroxyethoxy)phenyl]-7-(4-hydroxyphenyl)hepta-1,6-diene-3,5-dione] |
| 212 to 215 °C | CCN(CC)c1ccc(/C=C/C(=O)CC(=O)/C=C/c2ccc(O)cc2)c(OC(=O)c2ccccc2)c1 [CU425, (1E,6E)-1-(2-benzoyloxy-4-diethylaminophenyl)-7-(4-hydroxyphenyl)hepta-1,6-diene-3,5-dione] |
| 148 to 158 °C | O=C(/C=C/c1cc(O)ccc1-c1ccccc1)CC(=O)CCc1ccc(O)cc1 [CU541, (E)-1-(4-hydroxybiphenyl-2-yl)-7-(4-hydroxyphenyl)hept-1-ene-3,5-dione] |

Second part, the compound before the results:

| SMILES | melting point |
| --- | --- |
| COc1cc(O)cc(/C=C/C(=O)CC(=O)/C=C/c2cc(O)cc(OC)c2)c1 [CU358, (1E,6E)-1,7-bis(3-hydroxy-5-methoxyphenyl)hepta-1,6-diene-3,5-dione] | 147 to 151 °C |
| COc1cc(/C=C/C(=O)CC(=O)/C=C/c2cc3ccccc3n2C)ccc1O [CU147, (1E,6E)-1-(4-hydroxy-3-methoxyphenyl)-7-(1-methyl-1H-indol-2-yl)hepta-1,6-diene-3,5-dione] | 167 to 170 °C |
| O=C(/C=C/c1ccc(O)cc1)CC(=O)/C=C/c1ccc(Cl)c(Cl)c1 [CU045, (1E,6E)-1-(3,4-dichlorophenyl)-7-(4-hydroxyphenyl)hepta-1,6-diene-3,5-dione] | 83 to 85 °C |
| O=C(/C=C/c1ccc2c(c1)OCCO2)CC(=O)/C=C/c1ccc2c(c1)OCCO2 [CU356, (1E,6E)-1,7-bis(1,4-benzodioxan-6-yl)hepta-1,6-diene-3,5-dione] | 184 to 187 °C |
| COc1ccc(/C=C/C(=O)CC(=O)/C=C/c2cc3ccccc3n2C)cc1O [CU128, (1E,6E)-1-(3-hydroxy-4-methoxyphenyl)-7-(1-methyl-1H-indol-2-yl)hepta-1,6-diene-3,5-dione] | 185 to 193 °C |
| COc1cc(/C=C/C(=O)CC(=O)/C=C/c2ccc(Cl)c(Cl)c2)ccc1O [CU046, (1E,6E)-1-(3,4-dichlorophenyl)-7-(4-hydroxy-3-methoxyphenyl)hepta-1,6-diene-3,5-dione] | 70 to 76 °C |
| COc1ccc(OC)c(/C=C/C(=O)CC(=O)/C=C/c2ccc(O)c(OC)c2)c1 [CU076, (1E,6E)-1-(2,5-dimethoxyphenyl)-7-(4-hydroxy-3-methoxyphenyl)hepta-1,6-diene-3,5-dione] | 127 to 129 °C |
| COc1cc(/C=C/C(=O)CC(=O)/C=C/c2ccc(C)c(C)c2)ccc1O [CU057, (1E,6E)-1-(3,4-dimethylphenyl)-7-(4-hydroxy-3-methoxyphenyl)hepta-1,6-diene-3,5-dione] | 132 to 133 °C |
| COCOc1cccc(O)c1/C=C/C(=O)CC(=O)/C=C/c1ccc(OC)c(O)c1 [CU313, (1E,6E)-1-[2-hydroxy-6-(methoxymethoxy)phenyl]-7-(3-hydroxy-4-methoxyphenyl)hepta-1,6-diene-3,5-dione] | 89 to 93 °C |
| COc1cc(/C=C/C(=O)C(=Cc2ccncc2)C(C)=O)ccc1O [CU014, (5E)-6-(4-hydroxy-3-methoxyphenyl)-3-(pyridin-4-ylmethylene)hex-5-ene-2,4-dione] | 92 to 95 °C |
| COc1ccc(/C=C/C(=O)CC(=O)/C=C/c2ccc(O)c(C)c2)cc1O [CU052, (1E,6E)-1-(3-hydroxy-4-methoxyphenyl)-7-(4-hydroxy-3-methylphenyl)hepta-1,6-diene-3,5-dione] | 215 to 218 °C |
| COc1ccc(/C=C/C(=O)CC(=O)/C=C/c2ccc(OC)c(O)c2)cc1 [CU065, (1E,6E)-1-(3-hydroxy-4-methoxyphenyl)-7-(4-methoxyphenyl)hepta-1,6-diene-3,5-dione] | 137 to 140 °C |
| O=C(/C=C/c1ccc(O)cc1)CC(=O)/C=C/c1ccc(-c2ccccn2)cc1 [CU328, (1E,6E)-1-(4-hydroxyphenyl)-7-[4-(pyridin-2-yl)phenyl]hepta-1,6-diene-3,5-dione] | 229 to 232 °C |
| COc1cc(/C=C/C(=O)CC(=O)/C=C/c2cc(Cl)cc(Cl)c2)ccc1O [CU140, (1E,6E)-1-(3,5-dichlorophenyl)-7-(4-hydroxy-3-methoxyphenyl)hepta-1,6-diene-3,5-dione] | 170 to 173 °C |
| COc1ccc(/C=C/C(=O)CC(=O)/C=C/c2c(O)cccc2OC)cc1O [CU280, (1E,6E)-1-(2-hydroxy-6-methoxyphenyl)-7-(3-hydroxy-4-methoxyphenyl)hepta-1,6-diene-3,5-dione] | 181 to 185 °C |
| CN(C)CCCOc1ccc(/C=C/C(=O)CC(=O)/C=C/c2ccc(O)cc2)cc1 [CU236, (1E,6E)-1-[4-(3-dimethylaminopropoxy)phenyl]-7-(4-hydroxyphenyl)hepta-1,6-diene-3,5-dione] | 140 to 143 °C |
| O=C(/C=C/c1ccc(O)cc1)CC(=O)/C=C/c1cccnc1N1CCOCC1 [CU337, (1E,6E)-1-(4-hydroxyphenyl)-7-(2-morpholinopyridin-3-yl)hepta-1,6-diene-3,5-dione] | 159 to 165 °C |
| COc1ccc(/C=C/C(=O)CC(=O)/C=C/c2cccc(OC)c2O)cc1O [CU273, (1E,6E)-1-(2-hydroxy-3-methoxyphenyl)-7-(3-hydroxy-4-methoxyphenyl)hepta-1,6-diene-3,5-dione] | 155 to 157 °C |
| COc1cc(/C=C/C(=O)CC(=O)/C=C/c2ccc(O)c(Cl)c2)ccc1O [CU007, (1E,6E)-1-(3-chloro-4-hydroxyphenyl)-7-(4-hydroxy-3-methoxyphenyl)hepta-1,6-diene-3,5-dione] | 90 to 95 °C |
| CC(C)(C)OC(=O)N[C@H](Cc1ccccc1)C(=O)Nc1ccc(/C=C/C(=O)CC(=O)/C=C/c2ccc(O)cc2)cc1 [CU406, (1E,6E)-1-[4-((R)-2-tert-butoxycarbonylamino-3-phenylpropionylamino)phenyl]-7-(4-hydroxyphenyl)hepta-1,6-diene-3,5-dione] | 113 to 120 °C |
| COc1c(O)cccc1/C=C/C(=O)CC(=O)/C=C/c1cccc(O)c1OC [CU363, (1E,6E)-1,7-bis(3-hydroxy-2-methoxyphenyl)hepta-1,6-diene-3,5-dione] | 62 to 65 °C |
| COc1ccc(O)c(/C=C/C(=O)CC(=O)/C=C/c2ccc(O)c(OC)c2)c1 [CU088, (1E,6E)-1-(2-hydroxy-5-methoxyphenyl)-7-(4-hydroxy-3-methoxyphenyl)hepta-1,6-diene-3,5-dione] | 78 to 80 °C |
| COCOc1c(O)cccc1/C=C/C(=O)CC(=O)/C=C/c1ccc(O)cc1 [CU247, (1E,6E)-1-[3-hydroxy-2-(methoxymethoxy)phenyl]-7-(4-hydroxyphenyl)hepta-1,6-diene-3,5-dione] | 158 to 161 °C |
| COc1cc(/C=C/C(=O)CC(=O)/C=C/c2ccc3c(c2)OCCO3)ccc1O [CU209, (1E,6E)-1-(2,3-dihydrobenzo[1,4]dioxin-6-yl)-7-(4-hydroxy-3-methoxyphenyl)hepta-1,6-diene-3,5-dione] | 141 to 145 °C |
| COc1ccc(OC)c(/C=C/C(=O)CC(=O)/C=C/c2ccc(O)cc2)c1 [CU075, (1E,6E)-1-(2,5-dimethoxyphenyl)-7-(4-hydroxyphenyl)hepta-1,6-diene-3,5-dione] | 70 to 74 °C |
